Measurements reported in US12162881B2, “Forms and compositions of inhibitors of JAK2” (Ajax Therapeutics, Inc., priority 2021, dated 2024).
In brackets after ≈: the same amount, converted by molar mass. Where two headings read alike, the source gives them in different places.

Columns and labels:
Format in all cases: physicochemical
[1] = Dynamic vapor sorption (DVS) hygroscopicity; details: for Hysteresis: in % (unit assumed)
Procedure: Automated vapor sorption (VS) data were collected on a Surface Measurement System DVS Intrinsic instrument. Samples were not dried prior to analysis. Sorption and desorption data were collected over a range from 5% to 95% RH at 10% RH increments under a nitrogen purge. The equilibrium criterion used for analysis was less than 0.0100% weight change in 5 minutes with a maximum equilibration time of 3 hours. Data were not corrected for the initial moisture content of the samples.

[2] = Kinetic solubility of Compound 1 Lot II, visually estimated at ambient temperature; details: thermodynamic from solid
Procedure: Kinetic solubility of Compound 1 Lot II was visually estimated at ambient temperature (Table 22). Aliquots of various solvents were added to weighed samples of Compound 1 Lot II with agitation at ambient temperature until complete dissolution was achieved, as judged by visual observation. If dissolution occurred after the addition of the first aliquot, values were reported as “>”.

[3] = Variable relative humidity XRPD (VRH-XRPD)
Procedure: XRPD patterns were collected with a PANalytical X'Pert PRO MPD diffractometer using an incident beam of Cu Kα radiation produced using a long, fine-focus source and a nickel filter. The diffractometer was configured using the symmetric Bragg-Brentano geometry. Data were collected and analyzed using Data Collector software v. 5.5. Prior to the analysis, a silicon specimen (NIST SRM 640f) was analyzed to verify the observed position of the Si 111 peak is consistent with the NIST-certified position. A specimen of the sample was packed in a nickel-coated copper well. Antiscatter slits (SS) were used to minimize the background generated by air. Soller slits for the incident and diffracted beams were used to minimize broadening from axial divergence. Diffraction patterns were collected using a scanning position-sensitive detector (X'Celerator) located 240 mm from the sample and Data Collector software v. 5.5.
An Anton Paar temperature-humidity chamber (THC) was used while collecting in-situ XRPD patterns as a function of humidity. The temperature of the specimen was changed with a Peltier thermoelectric device located directly under the specimen holder and monitored with a platinum-100 resistance sensor located in the specimen holder. The thermoelectric device was powered and controlled by an Anton Paar TCU 50 interfaced with Data Collector. The humidity was generated with an RH-200 manufactured by VTI Inc. and carried by a flow of nitrogen gas. The humidity was monitored by a HygroClip sensor manufactured by Rotronic located next to the specimen inside the THC.
VRH-XRPD analysis was conducted to help determine water activity boundary for the solid-state conversion between hydrated Form A and anhydrous Form B. This method was utilized due the observed high tendency of Compound 1 to form solvates, which precluded the use of solvent-mediated approach.
Overall, two VRH-XRPD experiments were conducted to qualitatively evaluate RH conditions leading to predominance of Form A over Form B and vice versa. The kinetic component was not assessed.
The first VRH-XRPD experiment was conducted with a goal of observing dehydration of hydrated Form A. An initial XRPD scan was, therefore, acquired on Form A equilibrated in-situ at ambient RH for 45 minutes, which at the time of the analysis was ˜30%. The XRPD pattern from this scan was consistent with Form A (FIG. 39, top).
XRPD patterns were collected throughout the course of the experiment, each with a 10 minute scan.
XRPD patterns were collected throughout the course of the experiment, each with a 10 minute scan. The XRPD patterns remained Form B until the RH reached approximately 60% RH, where Form A became the primary phase with some Form B remaining (FIG. 41, top two spectra). Further decrease of Form B was observed through the remainder of the 60% RH hold at which point the experiment ended (FIG. 41, bottom two spectra). Complete conversion to Form A from Form B was not observed under these conditions.

[4] = Target RH 5.0%, listed as Lot II
[5] = Target RH 15.0%, listed as Lot II
[6] = Target RH 25.0%, listed as Lot II
[7] = Target RH 35.0%, listed as Lot II
[8] = Target RH 45.0%, listed as Lot II
[9] = Target RH 55.0%, listed as Lot II
[10] = Target RH 65.0%, listed as Lot II
[11] = Target RH 75.0%, listed as Lot II
[12] = Target RH 85.0%, listed as Lot II
[13] = Target RH 95.0%, listed as Lot II
[14] = desorption from 95% to 5% RH, listed as Lot II
[15] = sorption from 5% to 95% RH, listed as Lot II

CC(=O)Nc1cc(Oc2cnc3nc(Nc4cc(C(F)(F)F)cn(C)c4=O)n(C)c3c2C#N)ccn1 [Compound 1 Lot II, N-(4-((7-cyano-1-methyl-2-((1-methyl-2-oxo-5-(trifluoromethyl)-1,2-dihydropyridin-3-yl)amino)-1H-imidazo[4,5-b]pyridin-6-yl)oxy)pyridin-2-yl)acetamide]
Desorp Mass Change (%) [1, 4]: −0.019%
Sorp Mass Change (%) [1, 4]: 0.000%
Desorp Mass Change (%) [1, 5]: 0.332%
Sorp Mass Change (%) [1, 5]: 0.152%
Hysteresis [1, 5]: 0.180
Desorp Mass Change (%) [1, 6]: 5.623%
Sorp Mass Change (%) [1, 6]: 0.250%
Hysteresis [1, 6]: 5.373
Desorp Mass Change (%) [1, 7]: 6.984%
Sorp Mass Change (%) [1, 7]: 1.468%
Hysteresis [1, 7]: 5.516
Desorp Mass Change (%) [1, 8]: 7.374%
Sorp Mass Change (%) [1, 8]: 4.861%
Hysteresis [1, 8]: 2.513
Desorp Mass Change (%) [1, 9]: 7.842%
Sorp Mass Change (%) [1, 9]: 6.99%
Hysteresis [1, 9]: 0.848
Desorp Mass Change (%) [1, 10]: 8.505%
Sorp Mass Change (%) [1, 10]: 7.697%
Hysteresis [1, 10]: 0.808
Desorp Mass Change (%) [1, 11]: 8.972%
Sorp Mass Change (%) [1, 11]: 8.454%
Hysteresis [1, 11]: 0.518
Desorp Mass Change (%) [1, 12]: 9.206%
Sorp Mass Change (%) [1, 12]: 9.042%
Hysteresis [1, 12]: 0.164
Desorp Mass Change (%) [1, 13]: 9.408%
Sorp Mass Change (%) [1, 13]: 9.408%
DVS weight loss upon desorption [1, 14]: 9.4%
DVS weight loss upon desorption as water [1, 14]: approximately 2.9 mol/mol H2O
post-DVS XRPD ([1]; solid recovered after DVS cycle, listed as Lot II): mostly Form B with some peaks attributed to Form O present
DVS weight gain [1, 15]: 9.4%
DVS weight gain as water uptake [1, 15]: approximately 2.9 mol/mol H2O
DVS weight gain ([1]; sorption from 25% to 55% RH): 6.7%
DVS weight gain as water uptake ([1]; sorption from 25% to 55% RH): ~2.0 mol/mol H2O
DVS hysteresis observation ([1]; sorption/desorption 5-95% RH, listed as Lot II): Hysteresis was observed
solubility ([2]; 5:95 HFIPA/H2O (v/v), aqueous with cosolvent or surfactant or cyclodextrin, 5:95 HFIPA/H2O (v/v), ambient temperature, read-out: Solubility (mg/mL)): < 1 mg/mL
solubility ([2]; 50:50 DMA/H2O (v/v), aqueous with cosolvent or surfactant or cyclodextrin, 50:50 DMA/H2O (v/v), ambient temperature, read-out: Solubility (mg/mL)): < 1 mg/mL
solubility ([2]; 50:50 MeOH/CHCl3 (v/v), organic solvent or mixture, 50:50 MeOH/CHCl3 (v/v), ambient temperature, read-out: Solubility (mg/mL)): 5 to 20 mg/mL (≈ 10 to 40.1 mM)
solubility ([2]; 50:50 MeOH/DCM (v/v), organic solvent or mixture, 50:50 MeOH/DCM (v/v), ambient temperature, read-out: Solubility (mg/mL)): 5 to 20 mg/mL (≈ 10 to 40.1 mM)
solubility ([2]; 50:50 MeOH/H2O (v/v), aqueous with cosolvent or surfactant or cyclodextrin, 50:50 MeOH/H2O (v/v), ambient temperature, read-out: Solubility (mg/mL)): < 1 mg/mL
solubility ([2]; 50:50 TFE/H2O (v/v), aqueous with cosolvent or surfactant or cyclodextrin, 50:50 TFE/H2O (v/v), ambient temperature, read-out: Solubility (mg/mL)): 1 to 4.9 mg/mL (≈ 2.01 to 9.83 mM)
solubility ([2]; 50:50 THF/H2O (v/v), aqueous with cosolvent or surfactant or cyclodextrin, 50:50 THF/H2O (v/v), ambient temperature, read-out: Solubility (mg/mL)): 1 to 4.9 mg/mL (≈ 2.01 to 9.83 mM)
solubility ([2]; 50:50 acetone/water (v/v), aqueous with cosolvent or surfactant or cyclodextrin, 50:50 acetone/water (v/v), ambient temperature, read-out: Solubility (mg/mL)): 1 to 4.9 mg/mL (≈ 2.01 to 9.83 mM)
solubility ([2]; ACN, organic solvent or mixture, ACN, ambient temperature, read-out: Solubility (mg/mL)): < 1 mg/mL
solubility ([2]; AcOH, organic solvent or mixture, AcOH, ambient temperature, read-out: Solubility (mg/mL)): 5 to 20 mg/mL (≈ 10 to 40.1 mM)
solubility ([2]; CHCl3, organic solvent or mixture, CHCl3, ambient temperature, read-out: Solubility (mg/mL)): < 1 mg/mL
solubility ([2]; DCM, organic solvent or mixture, DCM, ambient temperature, read-out: Solubility (mg/mL)): < 1 mg/mL
solubility ([2]; DMA, organic solvent or mixture, DMA, ambient temperature, read-out: Solubility (mg/mL)): 5 to 20 mg/mL (≈ 10 to 40.1 mM)
solubility ([2]; DMF, organic solvent or mixture, DMF, ambient temperature, read-out: Solubility (mg/mL)): 1 to 4.9 mg/mL (≈ 2.01 to 9.83 mM)
solubility ([2]; DMSO, organic solvent or mixture, DMSO, ambient temperature, read-out: Solubility (mg/mL)): 5 to 20 mg/mL (≈ 10 to 40.1 mM)
solubility ([2]; H2O, water, H2O, ambient temperature, read-out: Solubility (mg/mL)): < 1 mg/mL
solubility ([2]; HFIPA, organic solvent or mixture, HFIPA, ambient temperature, read-out: Solubility): 84 mg/mL (≈ 169 mM)
solubility ([2]; HFIPA, organic solvent or mixture, HFIPA, ambient temperature, read-out: Solubility (mg/mL)): 5 to 20 mg/mL (≈ 10 to 40.1 mM)
solubility ([2]; MeOH, organic solvent or mixture, MeOH, ambient temperature, read-out: Solubility (mg/mL)): < 1 mg/mL
solubility ([2]; NMP, organic solvent or mixture, NMP, ambient temperature, read-out: Solubility (mg/mL)): 5 to 20 mg/mL (≈ 10 to 40.1 mM)
solubility ([2]; TFE, organic solvent or mixture, TFE, ambient temperature, read-out: Solubility (mg/mL)): 5 to 20 mg/mL (≈ 10 to 40.1 mM)
solubility ([2]; THF, organic solvent or mixture, THF, ambient temperature, solution almost completely clear after 24 h, read-out: Solubility (mg/mL)): 1 to 4.9 mg/mL (≈ 2.01 to 9.83 mM)
solubility ([2]; THF, organic solvent or mixture, THF, left at ambient temperature overnight, read-out: Solubility): ≥ 1 mg/mL
solubility ([2]; acetone, organic solvent or mixture, Acetone, ambient temperature, read-out: Solubility (mg/mL)): < 1 mg/mL
solubility ([2]; ethylene glycol, organic solvent or mixture, Ethylene glycol, ambient temperature, read-out: Solubility (mg/mL)): < 1 mg/mL
solubility ([2]; organic solvent or mixture, AcOH, DMF, DMSO, 50:50 MeOH/DCM, 50:50 MeOH/CHCl3, NMP, TFE, and 50:50 TFE/H2O, ambient temperature, read-out: Solubility (limited solubility values)): 1 to 20 mg/mL (≈ 2.01 to 40.1 mM)

CC(=O)Nc1cc(Oc2cnc3nc(Nc4cc(C(F)(F)F)cn(C)c4=O)n(C)c3c2C#N)ccn1 [Compound 1 Form B, N-(4-((7-cyano-1-methyl-2-((1-methyl-2-oxo-5-(trifluoromethyl)-1,2-dihydropyridin-3-yl)amino)-1H-imidazo[4,5-b]pyridin-6-yl)oxy)pyridin-2-yl)acetamide]
RH at which Form A became the primary phase ([3]; Experiment 2, RH incrementally increased from 15%, starting from Form B): approximately 60 % RH
RH below which the form likely exists ([3]; VRH-XRPD and DVS data combined): below 20 % RH
RH up to which the form may be kinetically stable ([3]; VRH-XRPD and DVS data combined): 40-60 % RH
